Key:
[1] = test system: pigweed; assay: Test B pre-/postemergence herbicide test; assay type: in vivo, Amaranthus retroflexus; details: for Pigweed plant response rating: postemergence, visual rating, scale 0 (no effect) to 100 (complete control)
Method in brief: (§1)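 Plants compared with untreated controls 13–15 days post-treatment and given a visual 0–100 injury score. Applications: preemergence to seeds; postemergence at 1- to 4-leaf (2–18 cm); paddy species flooded, 2-leaf stage. Vehicle non-phytotoxic, surfactant included.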

[2] = test system: velvetleaf; assay: Test B pre-/postemergence herbicide test; assay type: in vivo, Abutilon theophrasti; details: for Velvetleaf plant response rating: postemergence, visual rating, scale 0 (no effect) to 100 (complete control)
Method in brief: as §1

[3] = test system: large crabgrass; assay: Test B pre-/postemergence herbicide test; assay type: in vivo, Digitaria sanguinalis; details: for Crabgrass, Large plant response rating: postemergence, visual rating, scale 0 (no effect) to 100 (complete control)
Method in brief: as §1

[4] = test system: barnyardgrass; assay: Test A pre-/postemergence herbicide test; assay type: in vivo, Echinochloa crus-galli
Method in brief: (§2)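 Visual injury rating on a 0–100 scale (0 no effect, 100 complete control) versus untreated controls, about ten days after treatment in greenhouse. Pre: directed soil spray onto seeded sandy loam. Post: spray to runoff on plants 2–10 cm tall at one- to two-leaf stage.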

[5] = test system: redroot pigweed; assay: Test A pre-/postemergence herbicide test; assay type: in vivo, Amaranthus retroflexus
Method in brief: as §2

[6] = test system: morningglory; assay: Test A pre-/postemergence herbicide test; assay type: in vivo, Ipomoea spp.
Method in brief: as §2

[7] = test system: wheat; assay: Test B postemergence herbicide test; assay type: in vivo, Triticum aestivum; design: key to Wheat plant response rating: 0 = no effect, 100 = complete control; details: postemergence, visual rating, scale 0 (no effect) to 100 (complete control)
Method in brief: (§3)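 After treating 2-leaf paddy plants or 2–18 cm postemergence plants (1 to 4 leaves) with formulated chemical, researchers kept them in a greenhouse for 13–15 days. Effects were judged visually versus controls: 0 indicates none, 100 total control.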

[8] = test system: rice; assay: Test B flooded paddy test; assay type: in vivo, Oryza sativa; details: 1000 g ai/ha, visual rating, scale 0 to 100 (0 no effect, 100 complete control), 13 to 15 days
Method in brief: (§4)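 Formulated test chemicals went onto postemergence plants measuring 2 to 18 cm, at one to four leaves. For the paddy assay, species had reached two leaves. Scoring took place 13–15 days later by eye, relative to untreated plants, using 0 for no effect up to 100 for full control.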

[9] = test system: large crabgrass; assay: Test A pre-/postemergence herbicide test; assay type: in vivo, Digitaria sanguinalis
Method in brief: as §2

[10] = test system: giant foxtail; assay: Test B pre-/postemergence herbicide test; assay type: in vivo, Setaria faberi; details: for Foxtail, Giant plant response rating: postemergence, visual rating, scale 0 (no effect) to 100 (complete control)
Method in brief: as §1

[11] = test system: ducksalad; assay: Test B flooded paddy test; assay type: in vivo, Heteranthera limosa; details: 1000 g ai/ha, visual rating, scale 0 to 100 (0 no effect, 100 complete control), 13 to 15 days
Method in brief: as §4

[12] = test system: blackgrass; assay: Test B postemergence herbicide test; assay type: in vivo, Alopecurus myosuroides; details: postemergence, visual rating, scale 0 (no effect) to 100 (complete control)
Method in brief: as §4

[13] = test system: barnyardgrass; assay: Test B flooded paddy test; assay type: in vivo, Echinochloa crus-galli; details: 1000 g ai/ha, visual rating, scale 0 to 100 (0 no effect, 100 complete control), 13 to 15 days
Method in brief: as §4

[14] = test system: lambsquarters; assay: Test B pre-/postemergence herbicide test; assay type: in vivo, Chenopodium album; details: for Lambsquarters plant response rating: postemergence, visual rating, scale 0 (no effect) to 100 (complete control)
Method in brief: as §1

[15] = test system: corn; assay: Test B pre-/postemergence herbicide test; assay type: in vivo, Zea mays; details: for Corn plant response rating: postemergence, visual rating, scale 0 (no effect) to 100 (complete control)
Method in brief: as §1

[16] = test system: morningglory; assay: Test B pre-/postemergence herbicide test; assay type: in vivo, Ipomoea coccinea; details: for Morningglory plant response rating: postemergence, visual rating, scale 0 (no effect) to 100 (complete control)
Method in brief: as §1

[17] = test system: barnyardgrass; assay: Test B pre-/postemergence herbicide test; assay type: in vivo, Echinochloa crus-galli; details: for Barnyardgrass plant response rating: postemergence, visual rating, scale 0 (no effect) to 100 (complete control)
Method in brief: as §1

[18] = test system: Surinam grass; assay: Test B pre-/postemergence herbicide test; assay type: in vivo, Urochloa decumbens; details: for Surinam Grass plant response rating: postemergence, visual rating, scale 0 (no effect) to 100 (complete control)
Method in brief: as §1

[19] = test system: cocklebur; assay: Test B pre-/postemergence herbicide test; assay type: in vivo, Xanthium strumarium; details: for Cocklebur plant response rating: postemergence, visual rating, scale 0 (no effect) to 100 (complete control)
Method in brief: as §1

[20] = test system: wild oat; assay: Test B postemergence herbicide test; assay type: in vivo, Avena fatua; details: postemergence, visual rating, scale 0 (no effect) to 100 (complete control)
Method in brief: as §3

[21] = test system: giant foxtail; assay: Test A pre-/postemergence herbicide test; assay type: in vivo, Setaria faberi
Method in brief: as §2

[22] = test system: rice; assay: Test B pre-/postemergence herbicide test; assay type: in vivo, Oryza sativa; details: preemergence
Method in brief: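 Greenhouse pot assay with simultaneous preemergence (treated seed) and postemergence (2–18 cm seedlings) applications of surfactant-containing, non-phytotoxic solvent formulations. Response scored visually 13–15 days later on a 0–100 scale, 100 meaning complete control.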

[23] = test system: velvetleaf; assay: Test A pre-/postemergence herbicide test; assay type: in vivo, Abutilon theophrasti
Method in brief: as §2

[24] = test system: small flower umbrella sedge; assay: Test B flooded paddy test; assay type: in vivo, Cyperus difformis; details: 1000 g ai/ha, visual rating, scale 0 to 100 (0 no effect, 100 complete control), 13 to 15 days
Method in brief: as §4

[25] = 125 g ai/ha, 0 = no effect, 100 = complete control, preemergence
[26] = 500 g ai/ha, visual rating 0-100, 0 no effect, 100 complete control, preemergence
[27] = Postemergence, 500 g ai/ha, 0 to 100 scale, 0 no effect, 100 complete control
[28] = Postemergence, 2000 g ai/ha, 0 to 100 scale, 0 no effect, 100 complete control
[29] = Preemergence, 2000 g ai/ha, visual rating, 0 to 100 scale (0 no effect, 100 complete control)
[30] = preemergence, 500 g ai/ha, visual injury, 0 to 100 scale (0 no effect, 100 complete control)

C#CCNC(=O)c1cccc(NC(=O)c2sc(C(C)(C)C)nc2C)c1 [Compound 203]
75: Crabgrass, Large plant response rating [9, 29] | Foxtail, Giant plant response rating [21, 29]
80: Plant response rating, Crabgrass, Large [3, 26] | Plant response rating, Pigweed [5, 28]
35: Pigweed plant response rating [5, 27] | Velvetleaf plant response rating [23, 29]
30: Crabgrass, Large plant response rating (0 to 100 scale) [3, 25] | Plant response rating, Barnyardgrass [4, 28] | Plant response rating, Lambsquarters [14, 26] | Morningglory plant response rating ([16]; 500 g ai/ha) | Foxtail, Giant plant response rating [21, 30]
0: Pigweed plant response rating ([1]; 125 g ai/ha) | Velvetleaf plant response rating (0 to 100 scale) [2, 25] | Velvetleaf plant response rating ([2]; 125 g ai/ha) | Crabgrass, Large plant response rating ([3]; 125 g ai/ha) | Wheat plant response rating ([7]; 125 g ai/ha) | Wheat plant response rating ([7]; 500 g ai/ha) | Rice plant response rating [8] | Foxtail, Giant plant response rating (0 to 100 scale) [10, 25] | Foxtail, Giant plant response rating ([10]; 125 g ai/ha) | Ducksalad plant response rating [11] | Blackgrass plant response rating ([12]; 125 g ai/ha) | Blackgrass plant response rating ([12]; 500 g ai/ha) | Barnyardgrass plant response rating [13] | Corn plant response rating (0 to 100 scale) [15, 25] | Plant response rating, Corn [15, 26] | Corn plant response rating ([15]; 125 g ai/ha) | Morningglory plant response rating (0 to 100 scale) [16, 25] | Morningglory plant response rating ([16]; 125 g ai/ha) | Barnyardgrass plant response rating (0 to 100 scale) [17, 25] | Barnyardgrass plant response rating ([17]; 125 g ai/ha) | Barnyardgrass plant response rating ([17]; 500 g ai/ha) | Surinam Grass plant response rating (0 to 100 scale) [18, 25] | Plant response rating, Surinam Grass [18, 26] | Cocklebur plant response rating (0 to 100 scale) [19, 25] | Cocklebur plant response rating ([19]; 125 g ai/ha) | Oat, Wild plant response rating ([20]; 125 g ai/ha) | Rice plant response rating (0 to 100 scale) ([22]; 125 g ai/ha, 0 = no effect, 100 = complete control) | Plant response rating, Rice ([22]; 500 g ai/ha, visual rating 0-100, 0 no effect, 100 complete control) | Sedge, Umbrella plant response rating [24]
55: Plant response rating, Morningglory [6, 28]
50: Morningglory plant response rating [6, 27] | Crabgrass, Large plant response rating [9, 30] | Lambsquarters plant response rating ([14]; 500 g ai/ha)
60: Barnyardgrass plant response rating [4, 29]
20: Plant response rating, Velvetleaf [2, 26] | Surinam Grass plant response rating ([18]; 500 g ai/ha) | Plant response rating, Foxtail, Giant [21, 28]
90: Plant response rating, Pigweed [1, 26] | Pigweed plant response rating [5, 29] | Pigweed plant response rating [5, 30]
15: Morningglory plant response rating [6, 29] | Plant response rating, Crabgrass, Large [9, 28] | Velvetleaf plant response rating [23, 30]
10: Pigweed plant response rating (0 to 100 scale) [1, 25] | Pigweed plant response rating ([1]; 500 g ai/ha) | Velvetleaf plant response rating ([2]; 500 g ai/ha) | Crabgrass, Large plant response rating ([3]; 500 g ai/ha) | Barnyardgrass plant response rating [4, 27] | Barnyardgrass plant response rating [4, 30] | Morningglory plant response rating [6, 30] | Crabgrass, Large plant response rating [9, 27] | Plant response rating, Foxtail, Giant [10, 26] | Foxtail, Giant plant response rating ([10]; 500 g ai/ha) | Lambsquarters plant response rating (0 to 100 scale) [14, 25] | Lambsquarters plant response rating ([14]; 125 g ai/ha) | Corn plant response rating ([15]; 500 g ai/ha) | Plant response rating, Morningglory [16, 26] | Plant response rating, Barnyardgrass [17, 26] | Surinam Grass plant response rating ([18]; 125 g ai/ha) | Plant response rating, Cocklebur [19, 26] | Cocklebur plant response rating ([19]; 500 g ai/ha) | Oat, Wild plant response rating ([20]; 500 g ai/ha) | Foxtail, Giant plant response rating [21, 27] | Velvetleaf plant response rating [23, 27] | Plant response rating, Velvetleaf [23, 28]

From patent US20060069132A1, “Azolecarboxamide herbicides” (priority 2004, published 2006)
